Among the data in patent US20230348495A1, “A COMPOUND HAVING INHIBITORY ACTIVITY AGAINST KRAS G12D MUTATION” (TAIHO PHARMACEUTICAL CO., LTD., priority 2019, published 2023) are IC50 values, retold here.

Assay [1] deals with KRAS G12D (Homo sapiens (Human), UniProt P01116, G12D). The assay can be described thus: Inhibitory activity on KRAS G12D nucleotide (GDP-GTP) exchange reaction in vitro (SOS1-dependent, BODIPY FL GDP). Particulars: BODIPY FL GDP-bound KRAS G12D, compound 25° C. 1 hour, then SOS1 and GMPPNP 30 minutes. The class given is biochemical. The source says:
Test Example 1: Evaluation of inhibitory activity of compounds on KRAS G12D nucleotide (GDP-GTP) exchange reaction in vitro
Recombinant KRAS G12D (conjugated N-terminus His6-tag, TEV protease cleavage site and KRAS G12D residues 1-169 (SEQ ID NO: 1), prepared by the method described as below) and cleaved recombinant SOS1 (residues 564-1049(SEQ ID NO: 2), prepared by the method as below) proteins were expressed in E. coli and purified by affinity chromatography.
To prepare the recombinant KRAS G12D, the codon-optimized DNA sequence for the recombinant KRAS G12D (conjugated N-terminus His6-tag, TEV protease cleavage site and KRAS G12D residues 1-169 (SEQ ID NO: 3))was synthesized by GeneArt Technology (Life Technologies, Carlsbad, CA, US). The construct was subcloned into the expression vector pET28a and transformed into Escherichia coli BL21 (DE3) strains (Novagen, Madison, WI, US).
The transformed strain was cultivated in 2 L Luria Broth medium with 25 μg/mL kanamycin at a temperature of 37° C. to a density of 0.6 (OD600), then induced for expression with […] IPTG and further cultivated for 4 h. The cell pellet was resuspended in ice-cold lysis buffer containing 50 mM Tris-HCl (pH 7.5), 200 mM NaCl, and 100 μM TCEP (tris(2-carboxyethyl)phosphine).
After sonication, the disrupted debris was removed by centrifugation. The supernatant was applied on to Ni-NTA affinity gels, and the recombinant human KRAS (G12D) eluted fraction was collected. The buffer of the collected fraction was exchanged to the buffer containing 50 mM Tris-HCl (pH 7.5), 200 mM NaCl, 10% Glycerol, and 5 mM DTT by PD-10 column (GE-Healthcare, Chicago, IL, US).
To prepare the cleaved recombinant SOS1, the codon optimized DNA sequences for the recombinant SOS1 (residues 564-1049 with a conjugated N-terminus His6-tag and TEV protease cleavage site (SEQ ID NO: 4)) was synthesized by GeneArt Technology (Life Technologies). The construct was subcloned into the expression vector pET28a and transformed into Escherichia coli BL21 (DE3) strains (Novagen, Madison, WI, USA).
The transformed strain was cultivated in 2 L Terrific Broth medium with 25 μg/mL kanamycin at a temperature of 37° C. to a density of 0.8 (OD600), then shifted to a temperature of 16° C., induced for expression with […] IPTG, and further cultivated for 16 h. The cell pellet was resuspended in ice-cold lysis buffer containing 50 mM Tris-HCl (pH 7.5), 200 mM NaCl, and 100 μM TCEP.
After sonication, the disrupted debris was removed by centrifugation. The supernatant was applied on to Ni-NTA affinity gels, and the recombinant human SOS1 eluted fraction was collected. Then, His6-tagged TEV protease was added to the collected fraction, dialyzed with the ice-cold lysis buffer for 16 h at a temperature of 4° C., and applied on to Ni-NTA affinity gels. The flow-through fraction containing the tag-cleavaged recombinant human SOS1 was collected. The buffer of the collected fraction was exchanged to the buffer containing 50 mM Tris-HCl (pH 7.5), 200 mM NaCl, 10% Glycerol, and 5 mM DTT by PD-10 column (GE-Healthcare).
To prepare BODIPY FL (fluorescent dye) GDP-bound KRAS G12D protein, 50 μM KRAS G12D protein was incubated with 0.5 mM BODIPY FL GDP in a loading buffer (20 mM Tris-HCl (pH 7.5), 50 mM NaCl, 1 mM DTT and 2.5 mM EDTA) for 1 hour on ice. After the incubation, MgCl2 was added to a final concentration of 10 mM, followed by incubation at room temperature for 30 minutes.
The mixture was allowed to pass through a NAP-5 column to remove free nucleotides and purified BODIPY FL GDP-bound KRAS G12D protein was used for compound evaluation.
For the measurement of the inhibitory activity of compounds on GDP-GTP exchange rate of recombinant KRAS G12D, BODIPY FL GDP-bound KRAS G12D protein was incubated with various concentrations of compound in a reaction buffer (20 mM Tris-HCl (pH 7.5), 100 mM NaCl, 1 mM MgCl2, 2 mM DTT, 0.1% Tween 20) at 25° C. for 1 hour. […]

The subject of assay [2] is KRAS-G12D mutant cell line (A-427). The assay can be described thus: Growth inhibition activity on KRAS-G12D mutant cell line (A-427), CellTiter-Glo 3D. The class given is cell-based. The settings on record: Homo sapiens, 72 h, A-427 cells, 3-day culture with compound, read-out: A427 CTX IC50. The protocol: Test Example 2: A measurement test of growth inhibition activity on KRAS-G12D mutant cell line (A-427) (in vitro) A-427 cells (ATCC, Cat #: HTB-53), which are a KRAS-G12D mutant human lung cancer cell line, were suspended in a 10% fetal bovine serum-containing E-MEM medium (manufactured by Fujifilm Wako Pure Chemical Corporation). The cell suspension was seeded into each well of a 384-well U bottom microplate and cultured in an incubator containing 5% CO2 gas at 37° C. for 1 day.
The compound of the present invention was dissolved in DMSO, and the test compound was diluted with DMSO to give a concentration 500 times the final concentration. The solution of the test compound in DMSO was diluted with the medium used for suspending cells and added to each well of the cell-culture plate to give a DMSO final concentration of 0.2%, followed by culture in an incubator containing 5% CO2 gas at 37° C. for another 3 days. The cell count after a 3-day culture in the presence of the compound was measured using CellTiter-Glo 3D Reagent (manufactured by Promega Corporation).
All wells were added with CellTiter-Glo 3D Reagent and mixed for 10 minutes. 30 minutes after mixing, luminescence was measured by a plate reader. The growth inhibition rate was calculated from the following equation, and the concentration of the test compound at which 50% inhibition was achieved (IC50 (μM)) was determined.
Growth Inhibition Rate(%)=(C−T)/(C)×100
T: the emission intensity in a well into which a test compound was added.
C: the emission intensity in a well into which a test compound was not added.

Sequence of KRAS G12D (P01116 other isoform, or with tags, fused parts or gaps G12D (already in the parent)): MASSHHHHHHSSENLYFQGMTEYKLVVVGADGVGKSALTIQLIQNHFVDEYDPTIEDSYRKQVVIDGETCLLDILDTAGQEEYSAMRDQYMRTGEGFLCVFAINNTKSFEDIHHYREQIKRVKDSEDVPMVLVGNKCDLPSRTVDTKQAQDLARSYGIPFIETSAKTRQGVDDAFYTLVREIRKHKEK

Turning to `C#Cc1cccc2cc(O)cc(C(=O)N3Cc4nc(OCC5(CN6CC[C@@H](F)C6)CC5)nc(N5CC6CCC(C5)N6)c4C3)c12` [Example 11, (4-(3,8-diazabicyclo[3.2.1]octan-3-yl)-2-((1-(((R)-3-fluoropyrrolidin-1-yl)methyl)cyclopropyl)methoxy)-5,7-dihydro-6H-pyrrolo[3,4-d]pyrimidin-6-yl) (8-ethynyl-3-hydroxynaphthalen-1-yl)methanone], the IC50 was determined as 1.4 nM in assay [1] and 7850 nM in assay [2].
`O=C(c1cc(O)cc2cccc(I)c12)N1Cc2nc(OCC3(CN4CC[C@@H](F)C4)CC3)nc(N3CC4CCC(C3)N4)c2C1` [Example 12, (4-(3,8-diazabicyclo[3.2.1]octan-3-yl)-2-((1-(((R)-3-fluoropyrrolidin-1-yl)methyl)cyclopropyl)methoxy)-5,7-dihydro-6H-pyrrolo[3,4-d]pyrimidin-6-yl) (3-hydroxy-8-iodonaphthalen-1-yl)methanone]: the values for the half-maximal inhibitory concentration (IC50) in assay [1] and in assay [2] were 4.4 nM and 8150 nM, respectively.
For `O=C(c1cc(O)cc2cccc(I)c12)N1Cc2nc(OCC3(CN4CCOCC4)CC3)nc(N3CC4CCC(C3)N4)c2C1` [Example 13, (4-(3,8-diazabicyclo[3.2.1]octan-3-yl)-2-((1-(morpholinomethyl)cyclopropyl)methoxy)-5,7-dihydro-6H-pyrrolo[3,4-d]pyrimidin-6-yl) (3-hydroxy-8-iodonaphthalen-1-yl)methanone] the same measures were 5.5 nM and 8550 nM.
`CN(C)CC1(COc2nc(N3CC4CCC(C3)N4)c3cc(Cl)c(-c4cc(O)cc5ccccc45)c(F)c3n2)CC1` [Example 14, 4-(4-(3,8-diazabicyclo[3.2.1]octan-3-yl)-6-chloro-2-((1-((dimethylamino)methyl)cyclopropyl)methoxy)-8-fluoroquinazolin-7-yl)naphthalen-2-ol]: the IC50 in assay [1] came to 8.9 nM; in assay [2], 1270 nM.
For `CN(C)CC1(COc2nc(N3CC4CCC(C3)N4)c3ccc(-c4cc(O)cc5ccccc45)c(F)c3n2)CC1` [Example 15, 4-(4-(3,8-diazabicyclo[3.2.1]octan-3-yl)-2-((1-((dimethylamino)methyl)cyclopropyl)methoxy)-8-fluoroquinazolin-7-yl) naphthalen-2-ol] the same measures were 4.7 nM and 1360 nM.
`CN1CCC[C@H]1COc1nc(N2CC3CCC(C2)N3)c2ccc(-c3cc(O)cc4ccccc34)c(F)c2n1` [Example 16, 4-(4-(3,8-diazabicyclo[3.2.1]octan-3-yl)-8-fluoro-2-(((S)-1-methylpyrrolidin-2-yl)methoxy)quinazolin-7-yl) naphthalen-2-ol]: the results for the IC50 in assay [1] and in assay [2] were 10.2 nM and 2390 nM, respectively.
For `CCc1cc2c(N3CC4CCC(C3)N4)nc(OCC3(CN(C)C)CC3)nc2c(F)c1-c1cc(O)cc2ccccc12` [Example 19, 4-(4-(3,8-diazabicyclo[3.2.1]octan-3-yl)-2-((1-((dimethylamino)methyl)cyclopropyl)methoxy)-6-ethyl-8-fluoroquinazolin-7-yl)naphthalen-2-ol] the same measures were 7.1 nM and 1590 nM.
Regarding `CN(C)CC1(COc2nc3c(c(N4C[C@@H]5CC[C@H]4CN5)n2)CCN(c2cc(O)cc4cccc(Br)c24)C3)CC1` [Example 20, 4-(4-((1S,4S)-2,5-diazabicyclo[2.2.2]octan-2-yl)-2-((1-((dimethylamino)methyl)cyclopropyl)methoxy)-5,8-dihydropyrido[3,4-d]pyrimidin-7(6H)-yl)-5-bromonaphthalen-2-ol], the concentration for half-maximal inhibition (IC50) in assay [1] is 3 nM; in assay [2], 1950 nM.
For `CN(C)CC1(COc2nc3c(c(N4CC5CCC(C4)N5)n2)CCN(c2cc(O)cc4cccc(Br)c24)C3)CC1(F)F` (stereo not drawn) [Example 21, 4-(4-(3,8-diazabicyclo[3.2.1]octan-3-yl)-2-((1-((dimethylamino)methyl)-2,2-difluorocyclopropyl)methoxy)-5,8-dihydropyrido[3,4-d]pyrimidin-7(6H)-yl)-5-bromonaphthalen-2-ol], the 50% inhibitory concentration (IC50) in assay [1] was determined as 9.7 nM; in assay [2] it was 540 nM.
